Source: article PMC11904993, “Humanized Candida and NanoBiT Assays Expedite Discovery of Bdf1 Bromodomain Inhibitors With Antifungal Potential” (Advanced Science, 2025)
“And” between values parts separate entries of the source, which are not always exact repeats. Equal values may be shown once. Read-outs that look alike come from different tables or passages of the source.

Experiments:
[1] = system: C. glabrata strains expressing WT and mutant Bdf1; test: Growth inhibition in liquid media, C. glabrata lab strains; conditions: for OD at 600 nm: Figure S4B, Exp 1-3; for EC50: Nakaseomyces glabratus; for pEC50 growth inhibition: Fig 2C
Procedure: Growth on Liquid Media with C. glabrata Lab Strains: Cells were grown at 30 °C in SC+M+C‐U medium (SC medium with 5 mM methionine, 0.25 mM cysteine, without uracil) to an OD600 of 0.5–0.8. […] Plates were incubated at 30 °C and OD600 was measured using a Multiskan FC Microplate Photometer (Thermo Fisher).

CgBdf1 BD1 = CgBdf1 BD1 (Candida glabrata, UniProt Q6FWV7); test: HTRF assay, inhibition of H4ac4 peptide binding; set-up: species or system C. glabrata; conditions: for IC50 / pIC50 CgBD1: single experiments Exp1-3; for IC50: read-out: pIC50 CgBD1 (converted)
CgBdf1 BD2 = CgBdf1 BD2 (Candida glabrata, UniProt Q6FWV7); test: biochemical; assay type: binding, C. glabrata; conditions: for IC50: read-out: pIC50 CgBD2 (converted)
[2] = read-out: pEC50 (WT BDF1), Fig 2D (converted), WT C. glabrata, single experiments Exp1-3
[3] = read-out: pEC50 growth inhibition, Fig 2C (converted), strain BD1 Y-F, single experiments Exp1-3
[4] = Fig 2C original data, analogs of 24
[5] = strain BD2 Y-F, single experiments Exp1-3
[6] = read-out: pEC50 growth inhibition, Fig 2C (converted), strain BD2 Y-F, single experiments Exp1-3
[7] = Fig 2C original data, analogs of 24, single experiments Exp1-3

CgBdf1 BD1, sequence (Q6FWV7 entry or part of it): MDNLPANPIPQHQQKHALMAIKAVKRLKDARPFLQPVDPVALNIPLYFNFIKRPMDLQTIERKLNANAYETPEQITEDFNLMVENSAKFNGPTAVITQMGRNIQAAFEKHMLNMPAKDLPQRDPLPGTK
CgBdf1 BD2, sequence (Q6FWV7 entry or part of it): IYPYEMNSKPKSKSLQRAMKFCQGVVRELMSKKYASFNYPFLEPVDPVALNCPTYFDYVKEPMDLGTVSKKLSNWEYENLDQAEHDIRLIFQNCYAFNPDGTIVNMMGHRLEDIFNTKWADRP

## CCOC(=O)Nc1cc(-c2ccc(C)c(NS(C)(=O)=O)c2)nn2c(C)nnc12 [Bromosporine, reference compound]
[1]; WT BDF1 strain
  OD at 600 nm: 0.446 and 0.443 and 0.490
[1]; bdf1-bd1Δ strain
  OD at 600 nm: 0.422 and 0.447 and 0.470
[1]; bdf1-bd2Δ strain
  OD at 600 nm: 0.242 and 0.229 and 0.260
CgBdf1 BD1; 4 h, CgBD1, Conc 78.13 nM, replicate experiments, read-out: HTRF signal relative to no-compound control (Figure S4A raw data)
  remaining activity at 0.07813 µM: 98%
CgBdf1 BD1; 4 h, CgBD1, Conc 312.5 nM, replicate experiments, read-out: HTRF signal relative to no-compound control (Figure S4A raw data)
  remaining activity at 0.3125 µM: 97.9%
CgBdf1 BD1; 4 h, CgBD1, Conc 2500 nM, replicate experiments, read-out: HTRF signal relative to no-compound control (Figure S4A raw data)
  remaining activity at […]: 94.3%
CgBdf1 BD1; 4 h, CgBD1, Conc 5000 nM, replicate experiments, read-out: HTRF signal relative to no-compound control (Figure S4A raw data)
  remaining activity at 5 µM: 80.9%
CgBdf1 BD1; 4 h, CgBD1, Conc 10000 nM, replicate experiments, read-out: HTRF signal relative to no-compound control (Figure S4A raw data)
  remaining activity at 10 µM: 75.9%
CgBdf1 BD1; 4 h, CgBD1, Conc 20000 nM, replicate experiments, read-out: HTRF signal relative to no-compound control (Figure S4A raw data)
  remaining activity at 20 µM: 49.4%
CgBdf1 BD1; Fig 1D/2A original data
  IC50: 23.4 µM and 12.3 µM and 20 µM
CgBdf1 BD2; 24 h, CgBD2, Conc 78.13 nM, replicate experiments, read-out: HTRF signal relative to no-compound control (Figure S4A raw data)
  remaining activity at 0.07813 µM: 106%
CgBdf1 BD2; 24 h, CgBD2, Conc 156.25 nM, replicate experiments, read-out: HTRF signal relative to no-compound control (Figure S4A raw data)
  remaining activity at 0.15625 µM: 113%
CgBdf1 BD2; 24 h, CgBD2, Conc 2500 nM, replicate experiments, read-out: HTRF signal relative to no-compound control (Figure S4A raw data)
  remaining activity at […]: 79.8%
CgBdf1 BD2; 24 h, CgBD2, Conc 5000 nM, replicate experiments, read-out: HTRF signal relative to no-compound control (Figure S4A raw data)
  remaining activity at 5 µM: 60.1%
CgBdf1 BD2; 24 h, CgBD2, Conc 10000 nM, replicate experiments, read-out: HTRF signal relative to no-compound control (Figure S4A raw data)
  remaining activity at 10 µM: 30.8%
CgBdf1 BD2; 24 h, CgBD2, Conc 20000 nM, replicate experiments, read-out: HTRF signal relative to no-compound control (Figure S4A raw data)
  remaining activity at 20 µM: 23.4%
CgBdf1 BD2; Fig 1D/2A original data, single experiments Exp1-3
  IC50: 4.9 µM and 4.17 µM

## Cc1ccc(-c2nnc(C)c(NCc3ccco3)n2)cc1 [Compound 24a]
[1]; [2]
  EC50: 206 µM
[1]; [3]
  EC50: > 251 µM
CgBdf1 BD1; [4]
  pIC50 CgBD1: 5.099 and 5.219 and 5.157
CgBdf1 BD1; relative to 24, thiophenyl replaced by furyl or methylfuryl
  fold drop in CgBD1 inhibition: 3 fold

## Cc1cccc(-c2nnc(C)c(NCc3ccco3)n2)c1 [Compound 24b]
[1]; [5]
  pEC50 growth inhibition: 3.930 and 3.985
[1]; [2]
  EC50: > 251 µM
[1]; [3]
  EC50: > 251 µM
[1]; [6]
  EC50: 74.8 µM
CgBdf1 BD1; [4]
  IC50: 12.6 µM and 14.6 µM and 22.2 µM
CgBdf1 BD2; [7]
  IC50: 29.5 µM and 74.6 µM and > 100 µM

## Cc1cccc(-c2nnc(C)c(NCc3ccc(C)o3)n2)c1 [Compound 24d]
[1]; strain BD1 Y-F, single experiments Exp1-3
  pEC50 growth inhibition: 3.797 and 3.888
[1]; [5]
  pEC50 growth inhibition: 4.459 and 4.324
[1]; Fig 2D, WT C. glabrata, single experiments Exp1-3
  pEC50 (WT BDF1): 3.713 and 3.843
[1]; [2]
  EC50: 101 µM
[1]; [3]
  EC50: 134 µM
[1]; [6]
  EC50: 44.7 µM
CgBdf1 BD1; [4]
  IC50: 14.2 µM and 12.2 µM and 11.5 µM
CgBdf1 BD2; [7]
  IC50: 16.4 µM and 18.7 µM and 21.5 µM

## COc1cccc(CNc2nc(-c3ccc(C)cc3)nnc2C)c1 [Compound 24f]
[1]; [5]
  pEC50 growth inhibition: 4.188
[1]; [2]
  EC50: > 251 µM
[1]; [3]
  EC50: > 251 µM
[1]; [6]
  EC50: 68.2 µM
CgBdf1 BD1; [4]
  IC50: 3.66 µM and 2.81 µM and 2.3 µM
CgBdf1 BD2; [7]
  IC50: > 100 µM

## COc1ccc(-c2nnc(C)c(NCc3ccccc3)n2)cc1 [Compound 24g]
[1]; [5]
  pEC50 growth inhibition: 4.261 and 4.310
[1]; [2]
  EC50: > 251 µM
[1]; [3]
  EC50: > 251 µM
[1]; [6]
  EC50: 43.2 µM
CgBdf1 BD1; [4]
  pIC50 CgBD1: 6.145 and 5.997
CgBdf1 BD2; [7]
  pIC50 CgBD2: 4.269 and <4

## COc1ccc(CNc2nc(-c3ccc(C)cc3)nnc2C)cc1OC [Compound 24i]
[1]; [2]
  EC50: > 251 µM
[1]; [3]
  EC50: > 251 µM
[1]; [6]
  EC50: > 251 µM
CgBdf1 BD1; [4]
  IC50: 2.61 µM and 2.54 µM and 2.62 µM
CgBdf1 BD2; [7]
  IC50: 44.1 µM and 45 µM and 41.5 µM

## COc1ccc(CNc2nc(-c3cccc(C)c3)nnc2C)cc1OC [Compound 24j]
[1]; [2]
  EC50: > 251 µM
[1]; [3]
  EC50: > 251 µM
[1]; [6]
  EC50: > 251 µM
CgBdf1 BD1; [4]
  IC50: 4.11 µM and 5.81 µM and 4.81 µM
CgBdf1 BD2; [7]
  IC50: 57 µM and 58.2 µM and 82.4 µM

## COC(=O)c1ccc(CNc2nc(-c3ccc(C)cc3)nnc2C)cc1 [Compound 24k, Methyl 4‐(((6‐methyl‐3‐(p‐tolyl)‐1,2,4‐triazin‐5‐yl)amino)methyl)benzoate]
[1]; [2]
  EC50: > 251 µM
[1]; [3]
  EC50: > 251 µM
[1]; [6]
  EC50: > 251 µM
CgBdf1 BD1; [4]
  IC50: > 100 µM
CgBdf1 BD2; [7]
  IC50: > 100 µM

## COC(=O)c1cccc(CNc2nc(-c3ccc(C)cc3)nnc2C)c1 [Compound 24l, Methyl 3‐(((6‐methyl‐3‐(p‐tolyl)‐1,2,4‐triazin‐5‐yl)amino)methyl)benzoate]
[1]; [2]
  EC50: > 251 µM
[1]; [3]
  EC50: > 251 µM
[1]; [6]
  EC50: > 251 µM
CgBdf1 BD1; [4]
  IC50: 79.4 µM and 39.6 µM and 89.9 µM
CgBdf1 BD2; [7]
  IC50: > 100 µM
